Experimental findings from paper PMC5218480 (PLoS ONE, 2017) are described below.

The test has as its system MV-4-11 cells. The test is described as follows: Gene expression microarray analysis (Affymetrix PrimeView) and GSEA. It counts as cell-based, human. Set-up: RFU PODN (11730768_x_at) / Fold change /veh PODN (11730768_x_at) / RFU LINC00158 (11744669_a_at) / Fold change /veh LINC00158 (11744669_a_at) / RFU DUSP10 (11751237_a_at) / Fold change /veh DUSP10 (11751237_a_at) / RFU ID3 (11757404_x_at) / Fold change /veh ID3 (11757404_x_at) / RFU PLEKHG5 (11737974_s_at) / Fold change /veh PLEKHG5 (11737974_s_at) / RFU LRRC4B (11730491_at) / Fold change /veh LRRC4B (11730491_at) / RFU GIMAP4 (11747438_a_at) / Fold change /veh GIMAP4 (11747438_a_at) / RFU KRT8 (11758183_x_at) / Fold change /veh KRT8 (11758183_x_at) / RFU CNN1 (11734310_a_at) / Fold change /veh CNN1 (11734310_a_at) / RFU VPS37D (11726825_at) / Fold change /veh VPS37D (11726825_at) / RFU C10orf10 (11716522_x_at) / Fold change /veh C10orf10 (11716522_x_at) / RFU KIR2DL2 /// KIR2DL4 /// KIR2DL5A /// KIR2DL5B /// KIR2DS1 /// KIR2DS2 /// KIR2DS3 /// KIR2DS4 /// KIR3DL3 /// KIR3DL3 /// KIR3DS1 (11738374_at) / Fold change /veh KIR2DL2 /// KIR2DL4 /// KIR2DL5A /// KIR2DL5B /// KIR2DS1 /// KIR2DS2 /// KIR2DS3 /// KIR2DS4 /// KIR3DL3 /// KIR3DL3 /// KIR3DS1 (11738374_at) / RFU C1QL1 (11718748_at) / Fold change /veh C1QL1 (11718748_at) / RFU TMPRSS4 (11747572_a_at) / Fold change /veh TMPRSS4 (11747572_a_at) / RFU HAMP (11756126_x_at) / Fold change /veh HAMP (11756126_x_at) / RFU RNFT2 (11725882_a_at) / Fold change /veh RNFT2 (11725882_a_at) / RFU NR4A2 (11747474_a_at) / Fold change /veh NR4A2 (11747474_a_at) / RFU ABCC12 (11746883_a_at) / Fold change /veh ABCC12 (11746883_a_at) / RFU TMEM136 (11760407_x_at) / Fold change /veh TMEM136 (11760407_x_at) / RFU CLDN22 /// WWC2 (11732394_at) / Fold change /veh CLDN22 /// WWC2 (11732394_at) / RFU HLA-DPB1 (11760878_x_at) / Fold change /veh HLA-DPB1 (11760878_x_at) / RFU SPINT1 (11716480_a_at) / Fold change /veh SPINT1 (11716480_a_at) / RFU GAP43 (11754022_s_at) / Fold change /veh GAP43 (11754022_s_at) / RFU A4GNT (11735810_at) / Fold change /veh A4GNT (11735810_at) / RFU PRB3 (11715151_x_at) / Fold change /veh PRB3 (11715151_x_at) / RFU TUBB4B (11761932_at) / Fold change /veh TUBB4B (11761932_at) / RFU CAPN14 (11732068_a_at) / Fold change /veh CAPN14 (11732068_a_at) / RFU TMCC2 (11721928_a_at) / Fold change /veh TMCC2 (11721928_a_at) / RFU IRGQ (11745062_a_at) / Fold change /veh IRGQ (11745062_a_at) / RFU FAM174B (11720279_a_at) / Fold change /veh FAM174B (11720279_a_at) / RFU TMPRSS4 (11748680_a_at) / Fold change /veh TMPRSS4 (11748680_a_at) / RFU FAM212B (11763350_a_at) / Fold change /veh FAM212B (11763350_a_at) / RFU PLEKHG5 (11743358_a_at) / Fold change /veh PLEKHG5 (11743358_a_at) / RFU ZSCAN30 (11745921_a_at) / Fold change /veh ZSCAN30 (11745921_a_at) / RFU CMKLR1 (11741424_a_at) / Fold change /veh CMKLR1 (11741424_a_at) / RFU LOC101060620 /// MAPK8IP1 (11723275_at) / Fold change /veh LOC101060620 /// MAPK8IP1 (11723275_at) / RFU SPTSSB (11747773_x_at) / Fold change /veh SPTSSB (11747773_x_at) / RFU PRSS12 (11739890_at) / Fold change /veh PRSS12 (11739890_at) / RFU BIN1 (11741810_x_at) / Fold change /veh BIN1 (11741810_x_at) / RFU WNT11 (11732464_a_at) / Fold change /veh WNT11 (11732464_a_at) / RFU C10orf10 (11716521_a_at) / Fold change /veh C10orf10 (11716521_a_at) / RFU C5orf56 (11738089_at) / Fold change /veh C5orf56 (11738089_at) / RFU CYB561 (11721691_x_at) / Fold change /veh CYB561 (11721691_x_at) / RFU ANKRD19P (11752326_a_at) / Fold change /veh ANKRD19P (11752326_a_at) / RFU OR2T12 /// OR2T33 /// OR2T8 (11738714_s_at) / Fold change /veh OR2T12 /// OR2T33 /// OR2T8 (11738714_s_at) / RFU VCAN (11748164_a_at) / Fold change /veh VCAN (11748164_a_at) / RFU JSRP1 (11732532_at) / Fold change /veh JSRP1 (11732532_at) / RFU KRTAP10-11 (11738290_x_at) / Fold change /veh KRTAP10-11 (11738290_x_at) / RFU MYO3A (11730013_a_at) / Fold change /veh MYO3A (11730013_a_at) / RFU EBF3 (11725865_a_at) / Fold change /veh EBF3 (11725865_a_at) / RFU CAMK2N1 (11719241_x_at) / Fold change /veh CAMK2N1 (11719241_x_at) / RFU C5orf56 (11738088_a_at) / Fold change /veh C5orf56 (11738088_a_at) / RFU OLFML3 (11715873_a_at) / Fold change /veh OLFML3 (11715873_a_at) / RFU LOC100653217 /// NTM (11731650_a_at) / Fold change /veh LOC100653217 /// NTM (11731650_a_at) / RFU MAPK11 (11762145_a_at) / Fold change /veh MAPK11 (11762145_a_at) / RFU FIZ1 (11724087_x_at) / Fold change /veh FIZ1 (11724087_x_at) / RFU OASL (11726364_x_at) / Fold change /veh OASL (11726364_x_at) / RFU SOX15 (11748057_x_at) / Fold change /veh SOX15 (11748057_x_at) / RFU CD79A (11719716_a_at) / Fold change /veh CD79A (11719716_a_at) / RFU HIST1H1D (11736915_at) / Fold change /veh HIST1H1D (11736915_at) / RFU CASKIN2 (11723855_a_at) / Fold change /veh CASKIN2 (11723855_a_at) / RFU LOC730098 (11760151_x_at) / Fold change /veh LOC730098 (11760151_x_at) / RFU OR4N2 (11742367_at) / Fold change /veh OR4N2 (11742367_at) / RFU PRRT2 (11749266_a_at) / Fold change /veh PRRT2 (11749266_a_at) / RFU SNX32 (11753110_a_at) / Fold change /veh SNX32 (11753110_a_at) / RFU CDHR5 (11726645_a_at) / Fold change /veh CDHR5 (11726645_a_at) / RFU RCAN1 (11760418_a_at) / Fold change /veh RCAN1 (11760418_a_at) / RFU FAM167A (11723789_a_at) / Fold change /veh FAM167A (11723789_a_at) / RFU FAM26E (11764081_at) / Fold change /veh FAM26E (11764081_at) / RFU ISYNA1 (11749810_s_at) / Fold change /veh ISYNA1 (11749810_s_at) / RFU ACY1 (11761880_at) / Fold change /veh ACY1 (11761880_at) / RFU 11764098_at / Fold change /veh 11764098_at / RFU SAMD14 (11745864_x_at) / Fold change /veh SAMD14 (11745864_x_at) / RFU NPB (11741838_a_at) / Fold change /veh NPB (11741838_a_at) / RFU TMPRSS6 (11731388_a_at) / Fold change /veh TMPRSS6 (11731388_a_at) / RFU KRTAP10-2 (11738614_at) / Fold change /veh KRTAP10-2 (11738614_at) / RFU ARHGAP8 /// PRR5-ARHGAP8 (11727945_x_at) / Fold change /veh ARHGAP8 /// PRR5-ARHGAP8 (11727945_x_at) / RFU KRTAP5-7 /// NADSYN1 (11734609_at) / Fold change /veh KRTAP5-7 /// NADSYN1 (11734609_at) / RFU RASL12 (11751679_a_at) / Fold change /veh RASL12 (11751679_a_at) / RFU CDKN2B (11736163_a_at) / Fold change /veh CDKN2B (11736163_a_at) / RFU PRF1 (11729649_at) / Fold change /veh PRF1 (11729649_at) / RFU, ZNF638 /// ZNF638-IT1 / Fold change vs veh, ZNF638 /// ZNF638-IT1 / RFU, PANK3 / Fold change vs veh, PANK3 / RFU, SH3YL1 / Fold change vs veh, SH3YL1 / RFU, ZEB2 / Fold change vs veh, ZEB2 / RFU, NRIP1 / Fold change vs veh, NRIP1 / RFU, PTTG1IP / Fold change vs veh, PTTG1IP / RFU, CAPN2 / Fold change vs veh, CAPN2 / RFU, MED14 / Fold change vs veh, MED14 / RFU, SNORA58 / Fold change vs veh, SNORA58 / RFU, C1orf63 / Fold change vs veh, C1orf63 / RFU, LRRFIP1 / Fold change vs veh, LRRFIP1 / RFU, NDUFAF7 / Fold change vs veh, NDUFAF7 / RFU, SLC12A2 / Fold change vs veh, SLC12A2 / RFU, IBTK / Fold change vs veh, IBTK / RFU, ESF1 / Fold change vs veh, ESF1 / Fold change vs veh, TMEM50B / RFU, TAOK1 / Fold change vs veh, TAOK1 / RFU, ACBD3 / Fold change vs veh, ACBD3 / RFU, TMA16 / Fold change vs veh, TMA16 / RFU, RWDD3 / Fold change vs veh, RWDD3 / RFU, BCAT1 / Fold change vs veh, BCAT1 / RFU, EDEM3 / Fold change vs veh, EDEM3 / RFU, TMEM33 / Fold change vs veh, TMEM33 / RFU, WDR75 / Fold change vs veh, WDR75 / RFU, AHCTF1 / Fold change vs veh, AHCTF1 / RFU, TFRC / Fold change vs veh, TFRC / RFU, ZDHHC17 / Fold change vs veh, ZDHHC17 / RFU, NOM1 / Fold change vs veh, NOM1 / RFU, ARL8B / Fold change vs veh, ARL8B / RFU, ZBTB11 / Fold change vs veh, ZBTB11 / RFU, TAMM41 / Fold change vs veh, TAMM41 / RFU, KIAA1704 /// LOC100996395 / Fold change vs veh, KIAA1704 /// LOC100996395 / RFU, ING1 / Fold change vs veh, ING1 / RFU, TRMT61B / Fold change vs veh, TRMT61B / RFU, FUBP3 / Fold change vs veh, FUBP3 / RFU, TP53 / Fold change vs veh, TP53 / RFU, TNKS2 / Fold change vs veh, TNKS2 / RFU, ZFP14 / Fold change vs veh, ZFP14 / RFU, ACTR2 / Fold change vs veh, ACTR2 / RFU, PPP3R1 / Fold change vs veh, PPP3R1 / RFU, PIK3R1 / Fold change vs veh, PIK3R1 / RFU, HNRNPA1 / Fold change vs veh, HNRNPA1 / RFU, RNF170 / Fold change vs veh, RNF170 / RFU, ZNF28 / Fold change vs veh, ZNF28 / RFU, RNGTT / Fold change vs veh, RNGTT / RFU, OGT / Fold change vs veh, OGT / RFU, BRD1 / Fold change vs veh, BRD1 / RFU, MARS / Fold change vs veh, MARS / RFU, ZNF655 / Fold change vs veh, ZNF655 / RFU, FAHD1 / Fold change vs veh, FAHD1 / RFU, BDP1 / Fold change vs veh, BDP1 / RFU, LRRCC1 / Fold change vs veh, LRRCC1 / RFU, ARID1A / Fold change vs veh, ARID1A / RFU, ZNF146 / Fold change vs veh, ZNF146 / RFU, ZNF330 / Fold change vs veh, ZNF330 / RFU, GPN3 / Fold change vs veh, GPN3 / RFU, C9orf123 / Fold change vs veh, C9orf123 / RFU, N4BP2L2 / Fold change vs veh, N4BP2L2 / RFU, ARFIP1 / Fold change vs veh, ARFIP1 / RFU, FAM179B / Fold change vs veh, FAM179B / RFU, BCL10 / Fold change vs veh, BCL10 / RFU, UHRF1BP1L / Fold change vs veh, UHRF1BP1L / RFU, BET1 / Fold change vs veh, BET1 / RFU, CNOT2 / Fold change vs veh, CNOT2 / RFU, ZNF268 / Fold change vs veh, ZNF268 / Fold change vs veh, ZNF507 / RFU, DGCR2 / Fold change vs veh, DGCR2 / RFU, WDSUB1 / Fold change vs veh, WDSUB1 / Fold change vs veh, HSP90B1 /// MIR3652 / RFU, ADSS / Fold change vs veh, ADSS / RFU, GK / Fold change vs veh, GK / RFU, ZNF148 / Fold change vs veh, ZNF148 / RFU, TAF9 / Fold change vs veh, TAF9 / RFU, SLC1A5 / Fold change vs veh, SLC1A5 / RFU, SLMO2 / Fold change vs veh, SLMO2 / RFU, ABCC4 / Fold change vs veh, ABCC4 / RFU, LOC101060439 /// RAP1B / Fold change vs veh, LOC101060439 /// RAP1B / RFU, RFX7 / Fold change vs veh, RFX7 / RFU, GTPBP10 / Fold change vs veh, GTPBP10 / RFU, CNEP1R1 / Fold change vs veh, CNEP1R1 / RFU, BIVM-ERCC5 /// ERCC5 / Fold change vs veh, BIVM-ERCC5 /// ERCC5 / RFU, ILF3 / Fold change vs veh, ILF3 / RFU 11762660_at / Fold change /veh 11762660_at / RFU VCAN (11757783_s_at) / Fold change /veh VCAN (11757783_s_at) / RFU DDX43 (11728927_at) / Fold change /veh DDX43 (11728927_at) / RFU KRT8 (11758188_x_at) / Fold change /veh KRT8 (11758188_x_at) / RFU NKD1 (11759106_at) / Fold change /veh NKD1 (11759106_at) / RFU SRD5A1 (11742802_a_at) / Fold change /veh SRD5A1 (11742802_a_at) / RFU TPSAB1 /// TPSB2 (11721975_s_at) / Fold change /veh TPSAB1 /// TPSB2 (11721975_s_at) / RFU GSTM3 (11746129_a_at) / Fold change /veh GSTM3 (11746129_a_at) / RFU IL23R (11737362_x_at) / Fold change /veh IL23R (11737362_x_at) / RFU TMEM51 (11727254_a_at) / Fold change /veh TMEM51 (11727254_a_at) / RFU PIWIL2 (11732686_x_at) / Fold change /veh PIWIL2 (11732686_x_at) / RFU ORM1 (11744905_x_at) / Fold change /veh ORM1 (11744905_x_at) / RFU CCDC152 (11743942_at) / Fold change /veh CCDC152 (11743942_at) / RFU ECM1 (11717891_a_at) / Fold change /veh ECM1 (11717891_a_at) / RFU IL23R (11748794_a_at) / Fold change /veh IL23R (11748794_a_at) / RFU TNFAIP8L3 (11732012_x_at) / Fold change /veh TNFAIP8L3 (11732012_x_at) / RFU MBOAT4 (11741988_at) / Fold change /veh MBOAT4 (11741988_at) / RFU 11764193_at / Fold change /veh 11764193_at / RFU TMEM53 (11763286_at) / Fold change /veh TMEM53 (11763286_at) / RFU MAGEB2 (11727129_at) / Fold change /veh MAGEB2 (11727129_at) / RFU TMEM200A (11744735_a_at) / Fold change /veh TMEM200A (11744735_a_at) / RFU CCDC152 (11751479_a_at) / Fold change /veh CCDC152 (11751479_a_at) / RFU FAM211A (11726209_a_at) / Fold change /veh FAM211A (11726209_a_at) / RFU RGS16 (11746705_a_at) / Fold change /veh RGS16 (11746705_a_at) / RFU VCAN (11755009_s_at) / Fold change /veh VCAN (11755009_s_at) / RFU RHOB (11743442_s_at) / Fold change /veh RHOB (11743442_s_at) / RFU RGS16 (11720943_a_at) / Fold change /veh RGS16 (11720943_a_at) / RFU RGS16 (11720944_at) / Fold change /veh RGS16 (11720944_at) / RFU, VPS4B / Fold change vs veh, VPS4B / RFU, CREB1 / Fold change vs veh, CREB1 / RFU, DNAJC13 / Fold change vs veh, DNAJC13 / RFU, GNAQ / Fold change vs veh, GNAQ / RFU, CDK5R1 / Fold change vs veh, CDK5R1 / RFU, ZRANB3 / Fold change vs veh, ZRANB3 / RFU, CUL4A / Fold change vs veh, CUL4A / RFU, CCNY / Fold change vs veh, CCNY / RFU, UFL1 / Fold change vs veh, UFL1 / RFU, COG3 / Fold change vs veh, COG3 / RFU, DIAPH2 / Fold change vs veh, DIAPH2 / RFU, SKA2 / Fold change vs veh, SKA2 / RFU, AFF3 / Fold change vs veh, AFF3 / RFU, LMF1 / Fold change vs veh, LMF1 / RFU, IPO11 / Fold change vs veh, IPO11 / RFU, DFFB / Fold change vs veh, DFFB / RFU, FOXP1 / Fold change vs veh, FOXP1 / RFU, CARD8 / Fold change vs veh, CARD8 / RFU, STRN3 / Fold change vs veh, STRN3 / RFU, ADK / Fold change vs veh, ADK / RFU, RASSF2 / Fold change vs veh, RASSF2 / RFU, WIPF1 / Fold change vs veh, WIPF1 / RFU, LARP1B / Fold change vs veh, LARP1B / RFU, RASA1 / Fold change vs veh, RASA1 / RFU, RB1 / Fold change vs veh, RB1 / RFU, PPFIA1 / Fold change vs veh, PPFIA1 / RFU, MAT2A / Fold change vs veh, MAT2A / RFU, CCT5 / Fold change vs veh, CCT5 / RFU, WDR92 / Fold change vs veh, WDR92 / RFU, CUX1 / Fold change vs veh, CUX1 / RFU, TTC7A / Fold change vs veh, TTC7A / RFU, TMEM135 / Fold change vs veh, TMEM135 / RFU, DEPTOR / Fold change vs veh, DEPTOR / RFU, CPM / Fold change vs veh, CPM / RFU, DNAJB6 / Fold change vs veh, DNAJB6 / RFU, CACNA2D3 / Fold change vs veh, CACNA2D3 / RFU, DTX4 / Fold change vs veh, DTX4 / RFU, TFCP2 / Fold change vs veh, TFCP2 / RFU, GMCL1 /// GMCL1P1 / Fold change vs veh, GMCL1 /// GMCL1P1 / RFU, AEBP2 / Fold change vs veh, AEBP2 / RFU, SNHG1 /// SNORD22 /// SNORD25 /// SNORD26 /// SNORD27 /// SNORD28 /// SNORD29 /// SNORD31 / Fold change vs veh, SNHG1 /// SNORD22 /// SNORD25 /// SNORD26 /// SNORD27 /// SNORD28 /// SNORD29 /// SNORD31 / Fold change (Aza/veh), C12orf56 (ProbeSet 11735607_a_at) / Fold change (ACY-1035/veh), C12orf56 (ProbeSet 11735607_a_at) / Fold change (Aza/veh), FGFR1OP (ProbeSet 11751329_s_at) / Fold change (ACY-1035/veh), FGFR1OP (ProbeSet 11751329_s_at) / Fold change (Aza/veh), VPS36 (ProbeSet 11739960_a_at) / Fold change (ACY-1035/veh), VPS36 (ProbeSet 11739960_a_at) / RFU SYPL1 (11715823_x_at) / Fold change /veh SYPL1 (11715823_x_at) / RFU IGFBP7 (11715501_s_at) / Fold change /veh IGFBP7 (11715501_s_at) / RFU REEP3 (11722064_at) / Fold change /veh REEP3 (11722064_at) / RFU IGLL1 (11728026_x_at) / Fold change /veh IGLL1 (11728026_x_at): dose or concentration left out as unconfirmed. The conditions noted are these: MV-4-11 cells, 48 hours.

Regarding `Nc1ccc(-c2cccs2)cc1NC(=O)c1ccc2c(c1)cc(C1CC1)n2CCN1CCOCC1` [ACY-1035], the “Fold change /veh PLEKHG5 (11737974_s_at)” value is on record as 1.09.
